Results as given in paper PMC8198792, “Prediction of Anticancer Peptides with High Efficacy and Low Toxicity by Hybrid Model Based on 3D Structure of Peptides” (International Journal of Molecular Sciences, 2021).
pIC50: −log10 of the molar value. Where two headings read alike, the source gives them in different places. Bridge positions count the residues as written; N and C are the ends. Peptide text beside a SMILES is read from it.

What was measured:
[1] = test system: cervical cancer cell line (HeLa); assay type: cell-based, human; conditions: 24 h
Description: (§1) Five peptides were randomly selected from the candidate ACPs and synthesized by Changzhou Kanglong Biotech Ltd (Changzhou, China). using 9-fuorenylmethoxy carbonyl (FMOC) solid phase synthesis technology. The synthetic peptide was identified by mass spectrometry (MS), and the purity >95% by high performance liquid chromatography (HPLC). Human breast cancer cell line (MCF7), lung cancer cell line (A549), cervical cancer cell line (HeLa), colorectal adenocarcinoma cell line (LoVo) and human embryonic kidney cells (293T) were preserved in our laboratory. At 37 °C under 5/95% CO2/air condition, all cell lines were cultured in Dulbecco’s modified Eagle medium (DMEM) supplemented with 10% (v/v) fetal bovine serum (FBS, Gibco, Carlsbad, CA, USA) and 1% (v/v) penicillin/streptomycin (Sangon Biotech, Shanghai, China).
(§2) Human tumor cell lines MCF7, A549, HeLa and LoVo were used as experimental materials to detect the anticancer activity of peptides by MTT assay. In addition, human embryonic kidney cells 293T were also included in the experiment to examine the safety of the peptide against non-cancerous cells. […] Untreated cells as negative control group incubated with corresponding medium for 24 h. Subsequently, 10 uL, 5 mg/mL MTT (Sangon Biotech, Shanghai, China) solution was added to each well and incubated for 4 h at 37 °C. After the medium was discarded, 150 μL DMSO was added to each well for 10 min to dissolve formazan crystals. Absorbance was measured at 570 and 630 nm using a multiwall plate reader and the inhibition rate was expressed as the mean ± standard deviation (SD) of the triplicate data.

[2] = test system: lung cancer cell line (A549); assay type: cell-based, human; conditions: for pIC50 / killing effects on lung cancer cell A549 (in words): 24 h; for selective killing effect on lung cancer A549 cells relative to 293T cells (in words): A549 versus 293T, MTT IC50; for killing effects on lung cancer cell A549 (in words): MTT, anticancer activity when IC50 less than 50 μM
Description: as §1, §2

[3] = test system: Human breast cancer cell line (MCF7); assay type: cell-based; conditions: 24 h
Description: as §1, §2

[4] = test system: human embryonic kidney cells (293T); assay: MTT assay on non-cancerous cells, 293T; assay type: cell-based; conditions: 24 h; for toxicity to 293T cells (in words): low toxicity when the IC50 value exceeded 50 μM, MTT
Description: as §1, §2

[5] = test system: colorectal adenocarcinoma cell line (LoVo); assay type: cell-based, human; conditions: 24 h
Description: as §1, §2

cancer cell lines = test system: cancer cell lines; set-up: method as in 6 sources, ref CancerPPD [45] and SATPdb ||| ref CancerPPD/SATPdb ||| ref CancerPPD, SATPdb, Swissprot (PDB) ||| ref CancerPPD/SATPdb/Swissprot(PDB) ||| ref CancerPPD / SATPdb ||| ...; conditions: cited from earlier work
Description: Supplement ijms-22-05630-s001.zip/ACPs(seguence).xlsx, sheet "D1" | column: Activity || Supplement ijms-22-05630-s001.zip/ACPs(seguence).xlsx, sheet "D2" | column: Activity || Supplement ijms-22-05630-s001.zip/ACPs(seguence).xlsx, sheet "D3" | column: Activity || (+ 2 further places)

erythrocytes = conditions: cited from earlier work
Description: Supplement ijms-22-05630-s001.zip/Hemloytic Peptides(seguence).xlsx, sheet "HD1" | column: Activity || Supplement ijms-22-05630-s001.zip/Hemloytic Peptides(seguence).xlsx, sheet "HD2" | column: Activity || Supplement ijms-22-05630-s001.zip/Hemloytic Peptides(seguence).xlsx, sheet "HD3" | column: Activity

[6] = test system: many types of cells, including non-cancer cells; conditions: toxic peptides dataset TD2; class label 1 (toxic, positive set) or 0 (non-toxic AMP, negative set); ref SATPdb; cited from earlier work
[7] = test system: 2% sheep red blood cells (SRBC); assay: Hemolysis assay; assay type: cell-based; conditions: Triton X-100 0.1% (w/v), 2% SRBC, 37 °C, 1 h, absorbance 540 nm; printed once per peptide line
Experimental: The 2% sheep red blood cells (SRBC) were purchased from Nanjing Senbeijia Biological Technology Co., Ltd (Nangjing, China). A total of 4 mL of 2% SRBC was taken, rinsed twice with 4 mL of PBS by centrifugation for 5 min at 3000 rpm and the precipitates were resuspended in 4 mL of PBS. We added 100 μL of 2% SRBC to each well of the 96-well plate and then added 100 μL peptide solutions of different concentrations (2, 4, 8, 16, 32, 64, 128 and 256 μM) in triplicate at 37 °C for 1 h. 100 μL of PBS buffer and 100 uL of Triton X-100 0.1% (w/v) were mixed with SRBC as negative and positive controls, respectively. All samples were centrifuged at 3000 rpm for 5 min, 100 μL supernatant was collected and transferred to a new 96-well plate, and its absorbance was measured at 540 nm. The calculation formula of hemolysis rate is as follows. (5) % Hemolysis=absorbancesample-absorbancenegative/absorbancepositive-absorbancenegative×100

Compound	pIC50 [1]	pIC50 [2]	pIC50 [3]	pIC50 [4]	toxicity to 293T cells (in words) [4]	pIC50 [5]	killing effects on lung cancer cell A549 (in words) [2]	further results
CC[C@H](C)[C@@H]1NC(=O)[C@H](CCCCN)NC(=O)[C@@H](NC(=O)[C@H](CCCCN)NC(=O)[C@H](CC(C)C)NC(=O)CNC(=O)[C@H](CCC(=O)O)NC(=O)[C@H](CC(C)C)NC(=O)[C@H](CCCCN)NC(=O)CNC(=O)[C@H](C)NC(=O)[C@@H](NC(=O)[C@H](CC(=O)O)NC(=O)[C@H](CCCCN)NC(=O)[C@H](C)NC(=O)[C@H](C)NC(=O)CNC(=O)[C@H](CCCCN)NC(=O)[C@H](CC(C)C)NC(=O)[C@@H](NC(=O)[C@H](CC(=O)O)NC(=O)[C@H](CC(C)C)NC(=O)[C@H](Cc2ccccc2)NC(=O)[C@H](CC(C)C)NC(=O)CN)[C@@H](C)O)C(C)C)CSSC[C@@H](C(=O)N[C@@H](CCCCN)C(=O)N[C@@H](CC(C)C)C(=O)N2CCC[C@H]2C(=O)O)NC(=O)CNC(=O)[C@H]([C@@H](C)O)NC1=O [RANATUERIN2] (H-GLFLDTLKGAAKDVAGKLEGLKCKITGCKLP-OH; disulfide 23-28; N-terminus and C-terminus assumed)	< 3.89	< 3.89	< 3.89	< 3.89	low toxicity			
CC(C)C[C@H](NC(=O)CN)C(=O)N[C@@H](Cc1ccccc1)C(=O)N[C@@H](CC(=O)O)C(=O)N[C@H](C(=O)N[C@H](C(=O)N[C@@H](CCCCN)C(=O)NCC(=O)N[C@H](C(=O)N[C@@H](CC(C)C)C(=O)N[C@@H](CCCCN)C(=O)NCC(=O)N[C@@H](C)C(=O)NCC(=O)N[C@@H](CCCCN)C(=O)N[C@@H](CC(N)=O)C(=O)N[C@H](C(=O)N[C@@H](C)C(=O)NCC(=O)N[C@@H](CO)C(=O)N[C@@H](CC(C)C)C(=O)N[C@@H](CC(C)C)C(=O)N[C@@H](CCC(=O)O)C(=O)N[C@@H](CCC(N)=O)C(=O)N[C@@H](CC(C)C)C(=O)N[C@@H](CCCCN)C(=O)N[C@H]1CSSC[C@@H](C(=O)O)NC(=O)CNC(=O)CNC(=O)[C@H](CO)NC(=O)[C@H](CC(C)C)NC(=O)[C@H](CCCCN)NC1=O)C(C)C)C(C)C)C(C)C)C(C)C [Brevinin-2DYb] (H-GLFDVVKGVLKGAGKNVAGSLLEQLKCKLSGGC-OH; disulfide 27-33; N-terminus and C-terminus assumed)	4.63	4.62	4.42	4.30	low toxicity	4.46	effective killing effects	selective killing effect on lung cancer A549 cells relative to 293T cells (in words) [2]: selective killing effect
FVGAIAAALPHVISAIKNAL [satpdb12079]								Activity (cancer cell lines; ACPs dataset D3 (sheet "D3"), label 1 = ACP, 0 = non-ACP, ref CancerPPD/SATPdb): 0; Activity (cancer cell lines; ACPs dataset D4 (sheet "D4"), label 1 = ACP, 0 = non-ACP, ref CancerPPD / SATPdb): 0; Activity (cancer cell lines; ACPs dataset D5, sheet "D5", label 1 = ACP, 0 = non-ACP, ref CancerPPD [45] and SATPdb): 0; Activity (erythrocytes; Hemolytic peptides dataset HD2, label 1 = hemolytic, 0 = non-hemolytic, ref Hemolytik/SATPdb): 1; Activity (erythrocytes; hemolytic peptides dataset HD3, 1 = hemolytic (positive set), 0 = non-hemolytic (negative set), labels taken from databases, ref Hemolytik/SATPdb): 1; Activity [6]: 1
FFGWLIRGAIHAGKAIHGLIHRRRH [satpdb10145]								Activity (cancer cell lines; ACPs dataset D1, 1 = ACP (positive), 0 = non-ACP (negative), label taken from databases, ref CancerPPD [45] and SATPdb): 0; Activity (cancer cell lines; ACPs dataset D4 (sheet "D4"), label 1 = ACP (CancerPPD ID), 0 = non-ACP (non-anticancer AMP, SATPdb ID), ref CancerPPD [45] and SATPdb): 0; Activity (erythrocytes): 1; Activity [6]: 1
CC[C@H](C)[C@H](NC(=O)CN)C(=O)N[C@@H](CC(C)C)C(=O)N[C@@H](CO)C(=O)N[C@@H](CO)C(=O)N[C@H](C(=O)N[C@@H](CCCCN)C(=O)NCC(=O)N[C@H](C(=O)N[C@@H](C)C(=O)N[C@@H](CCCCN)C(=O)NCC(=O)N[C@H](C(=O)N[C@@H](C)C(=O)N[C@@H](CCCCN)C(=O)N[C@@H](CC(N)=O)C(=O)N[C@H](C(=O)N[C@@H](C)C(=O)N[C@@H](C)C(=O)N[C@@H](CCC(N)=O)C(=O)N[C@@H](CC(C)C)C(=O)N[C@@H](CC(C)C)C(=O)N[C@@H](CC(=O)O)C(=O)N[C@H](C(=O)N[C@@H](CC(C)C)C(=O)N[C@@H](CCCCN)C(=O)N[C@H]1CSSC[C@@H](C(=O)O)NC(=O)CNC(=O)[C@H]([C@@H](C)O)NC(=O)[C@H]([C@@H](C)CC)NC(=O)[C@H](CCCCN)NC1=O)[C@@H](C)O)C(C)C)C(C)C)C(C)C)[C@@H](C)CC [RANATUERIN-2Lb] (H-GILSSIKGVAKGVAKNVAAQLLDTLKCKITGC-OH; disulfide 27-32; N-terminus and C-terminus assumed)	4.43	4.81	4.34	4.20	low toxicity	4.22	effective killing effects	selective killing effect on lung cancer A549 cells relative to 293T cells (in words) [2]: selective killing effect
CC[C@H](C)[C@H](NC(=O)CN)C(=O)N[C@@H](Cc1ccccc1)C(=O)N[C@@H](CC(=O)O)C(=O)N[C@H](C(=O)N[C@H](C(=O)N[C@@H](CCCCN)C(=O)NCC(=O)N[C@H](C(=O)N[C@@H](CC(C)C)C(=O)N[C@@H](CCCCN)C(=O)NCC(=O)N[C@H](C(=O)NCC(=O)N[C@@H](CCCCN)C(=O)N[C@@H](CC(N)=O)C(=O)N[C@H](C(=O)N[C@@H](C)C(=O)NCC(=O)N[C@@H](CO)C(=O)N[C@@H](CC(C)C)C(=O)N[C@@H](CC(C)C)C(=O)N[C@@H](CCC(=O)O)C(=O)N[C@@H](CCC(N)=O)C(=O)N[C@@H](CC(C)C)C(=O)N[C@@H](CCCCN)C(=O)N[C@H]1CSSC[C@@H](C(=O)O)NC(=O)CNC(=O)CNC(=O)[C@H](CO)NC(=O)[C@H](CC(C)C)NC(=O)[C@H](CCCCN)NC1=O)C(C)C)C(C)C)C(C)C)C(C)C)C(C)C [Brevinin-2DYd] (H-GIFDVVKGVLKGVGKNVAGSLLEQLKCKLSGGC-OH; disulfide 27-33; N-terminus and C-terminus assumed)	4.71	5.53	4.59	5.23	highest toxicity	5.09	effective killing effects	
Triton X-100 [reference compound]								Hemolytic effect on 2% sheep erythrocytes, Positive Control (Triton X-100 (0.1%)) [7]: + (The “+” symbol indicates that the hemolysis rate exceeds 10% when peptides concentration reaches 100 μM)
